Measured values reported in US10538495B2, “Modulators of indoleamine 2,3-dioxygenase” (GLAXOSMITHKLINE INTELLECTUAL PROPERTY DEVELOPMENT LIMITED, priority 2016, dated 2020).

Tests used:
[1] = target: T1, indoleamine 2,3-dioxygenase (IDO1) (Homo sapiens, UniProt P14902); assay: HeLa IDOi assay (kynurenine by mass spectrometry); type: cell-based; set-up: human epithelial HeLa cells (CCL-2; host or cells: HeLa cells stimulated with human IFN-γ; settings: IFN-γ stimulated HeLa cells, 2 days, kynurenine detected by mass spectrometry; read-out: HeLa pIC50 (converted)
Protocol: (§1) Brief descriptions of the cellular assays are provided following the table.
(§2) Compounds of the present invention were tested via high-throughput cellular assays utilizing detection of kynurenine via mass spectrometry and cytotoxicity as end-points. For the mass spectrometry and cytotoxicity assays, human epithelial HeLa cells (CCL-2; ATCC®, Manassas, Va.) were stimulated with human interferon-γ (IFN-γ) (Sigma-Aldrich Corporation, St. Louis, Mo.) to induce the expression of indoleamine 2,3-dioxygenase (IDO1). Compounds with IDO1 inhibitory properties decreased the amount of kynurenine produced by the cells via the tryptophan catabolic pathway. Cellular toxicity due to the effect of compound treatment was measured using CellTiter-Glo® reagent (CTG) (Promega Corporation, Madison, Wis.), which is based on luminescent detection of ATP, an indicator of metabolically active cells.
(§3) In preparation for the assays, test compounds were serially diluted 3-fold in DMSO from a typical top concentration of 5 mM and plated at 0.5 μL in 384-well, polystyrene, clear bottom, tissue culture treated plates with lids (Greiner Bio-One, Kremsmünster, Austria) to generate 11-point dose response curves. Low control wells (0% kynurenine or 100% cytotoxicity) contained either 0.5 μL of DMSO in the presence of unstimulated (−IFN-γ) HeLa cells for the mass spectrometry assay or 0.5 μL of DMSO in the absence of cells for the cytotoxicity assay, and high control wells (100% kynurenine or 0% cytotoxicity) contained 0.5 μL of DMSO in the presence of stimulated (+IFN-γ) HeLa cells for both the mass spectrometry and cytotoxicity assays.
Frozen stocks of HeLa cells were washed and recovered in DMEM high glucose medium with HEPES (Thermo Fisher Scientific, Inc., Waltham, Mass.) supplemented with 10% v/v certified fetal bovine serum (FBS) (Thermo Fisher Scientific, Inc., Waltham, Mass.), and 1× penicillin-streptomycin antibiotic solution (Thermo Fisher Scientific, Inc., Waltham, Mass.). The cells were diluted to 100,000 cells/mL in the supplemented DMEM medium. 50 μL of either the cell suspension, for the mass spectrometry assay, or medium alone, for the cytotoxicity assay, were added to the low control wells, on the previously prepared 384-well compound plates, resulting in 5,000 cells/well or 0 cells/well respectively. IFN-γ was added to the remaining cell suspension at a final concentration of 10 nM, and 50 μL of the stimulated cells were added to all remaining wells on the 384-well compound plates. The plates, with lids, were then placed in a 37° C., 5% CO2 humidified incubator for 2 days.
(§4) Following incubation, the 384-well plates were removed from the incubator and allowed to equilibrate to room temperature for 30 minutes. For the cytotoxicity assay, CellTiter-Glo® was prepared according to the manufacturer's instructions, and 10 μL were added to each plate well. After a twenty minute incubation at room temperature, luminescence was read on an EnVision® Multilabel Reader (PerkinElmer Inc., Waltham, Mass.). For the mass spectrometry assay, 10 μL of supernatant from each well of the compound-treated plates were added to 40 μL of acetonitrile, containing 10 μM of an internal standard for normalization, in 384-well, polypropylene, V-bottom plates (Greiner Bio-One, Kremsmünster, Austria) to extract the organic analytes. Following centrifugation at 2000 rpm for 10 minutes, 10 μL from each well of the acetonitrile extraction plates were added to 90 μL of sterile, distilled H2O in 384-well, polypropylene, V-bottom plates for analysis of kynurenine and the internal standard on the RapidFire 300 (Agilent Technologies, Santa Clara, Calif.) and 4000 QTRAP MS (SCIEX, Framingham, Mass.). MS data were integrated using Agilent Technologies' RapidFire Integrator software, and data were normalized for analysis as a ratio of kynurenine to the internal standard. […]

[2] = target: T1, indoleamine 2,3-dioxygenase (IDO1); assay: PBMC IDOi assay (kynurenine by mass spectrometry); type: cell-based; settings: IFN-γ and LPS stimulated human PBMC, 2 days, kynurenine detected by mass spectrometry; read-out: PBMC pIC50 (converted)
Protocol: as §1
as §2, with “peripheral blood mononuclear” for “epithelial HeLa”, “(PBMC) (PB003F; AllCells®, Alameda, Calif.)” for “(CCL-2; ATCC®, Manassas, Va.)”, “Mo.) and lipopolysaccharide from Salmonella minnesota (LPS) (Invivogen, San Diego, Calif.)” for “Mo.)”
as §3, with “(−IFN-γ/−LPS) PBMCs” for “(−IFN-γ) HeLa cells”, “(+IFN-γ/+LPS) PBMCs” for “(+IFN-γ) HeLa cells”
Frozen stocks of PBMCs were washed and recovered in RPMI 1640 medium (Thermo Fisher Scientific, Inc., Waltham, Mass.) supplemented with 10% v/v heat-inactivated fetal bovine serum (FBS) (Thermo Fisher Scientific, Inc., Waltham, Mass.), and 1× penicillin-streptomycin antibiotic solution (Thermo Fisher Scientific, Inc., Waltham, Mass.). The cells were diluted to 1,000,000 cells/mL in the supplemented RPMI 1640 medium. 50 μL of either the cell suspension, for the mass spectrometry assay, or medium alone, for the cytotoxicity assay, were added to the low control wells, on the previously prepared 384-well compound plates, resulting in 50,000 cells/well or 0 cells/well respectively. IFN-γ and LPS were added to the remaining cell suspension at final concentrations of 100 ng/ml and 50 ng/ml respectively, and 50 μL of the stimulated cells were added to all remaining wells on the 384-well compound plates. The plates, with lids, were then placed in a 37° C., 5% CO2 humidified incubator for 2 days.
as §4, with “and 40” for “and 10”, “Mass.).” for “Mass.). MS data were integrated using Agilent Technologies' RapidFire Integrator software, and data were normalized for analysis as a ratio of kynurenine to the internal standard.”

T1 sequence (P14902 whole entry): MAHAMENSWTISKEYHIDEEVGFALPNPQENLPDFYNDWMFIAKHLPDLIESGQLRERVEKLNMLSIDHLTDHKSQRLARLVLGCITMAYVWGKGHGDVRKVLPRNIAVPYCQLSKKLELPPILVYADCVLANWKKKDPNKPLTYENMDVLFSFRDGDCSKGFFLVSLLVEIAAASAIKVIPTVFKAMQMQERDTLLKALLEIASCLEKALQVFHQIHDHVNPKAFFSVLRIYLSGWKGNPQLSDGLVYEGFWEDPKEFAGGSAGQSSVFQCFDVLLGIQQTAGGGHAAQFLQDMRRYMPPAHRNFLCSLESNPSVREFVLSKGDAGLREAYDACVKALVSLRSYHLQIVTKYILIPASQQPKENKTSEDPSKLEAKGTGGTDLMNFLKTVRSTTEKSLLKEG

Cc1ccc(CC(=O)Nc2cc(-c3ccccc3-c3nn[nH]n3)ccc2SC(C)(C)C)cc1 [Example 1, N-(4-(tert-butylthio)-2′-(2H-tetrazol-5-yl)-[1,1′-biphenyl]-3-yl)-2-(p-tolyl)acetamide]
IC50 [1]: 15.8 nM | IC50 [2]: 12.6 nM

Cc1ccc(CC(=O)Nc2cc(-c3ccccc3C(=O)O)ccc2SC(C)(C)C)cc1 [Example 4, 4′-(tert-Butylthio)-3′-(2-(p-tolyl)acetamido)-[1,1′-biphenyl]-2-carboxylic acid]
IC50 [1]: 316 nM | IC50 [2]: 794 nM

Cc1ccc(CC(=O)Nc2cc(-c3ccccc3-c3nn[nH]n3)ccc2Sc2ccccc2)cc1 [Example 10]
IC50 [1]: 251 nM | IC50 [2]: 126 nM

Cc1ccc(NC(=O)Nc2cc(-c3ccccc3-c3nn[nH]n3)ccc2SC(C)(C)C)cc1 [Example 13, 1-(4-(tert-Butylthio)-2′-(2H-tetrazol-5-yl)-[1,1′-biphenyl]-3-yl)-3-(p-tolyl)urea]
IC50 [1]: 398 nM | IC50 [2]: 79.4 nM

Cc1ccc(NC(=O)Nc2cc(-c3ccccc3C(=O)O)ccc2SC(C)(C)C)cc1 [Example 14, 4′-(tert-Butylthio)-3′-(3-(p-tolyl)ureido)-[1,1′-biphenyl]-2-carboxylic Acid]
IC50 [2]: 1580 nM

Cc1ccc(CC(=O)Nc2cc(-c3ccccc3-c3nn[nH]n3)ccc2S(=O)(=O)c2ccccc2)cc1 [Example 15, N-(4-(phenylsulfonyl)-2′-(2H-tetrazol-5-yl)-[1,1′-biphenyl]-3-yl)-2-(p-tolyl)acetamide]
IC50 [1]: 2000 nM | IC50 [2]: 2000 nM

Cc1ccccc1CC(=O)Nc1cc(-c2ccccc2-c2nn[nH]n2)ccc1SC(C)(C)C [Example 19, N-(4-(tert-butylthio)-2′-(2H-tetrazol-5-yl)-[1,1′-biphenyl]-3-yl)-2-(o-tolyl)acetamide]
IC50 [1]: 15.8 nM | IC50 [2]: 10 nM

Cc1cccc(CC(=O)Nc2cc(-c3ccccc3-c3nn[nH]n3)ccc2SC(C)(C)C)c1 [Example 20, N-(4-(tert-butylthio)-2′-(2H-tetrazol-5-yl)-[1,1′-biphenyl]-3-yl)-2-(m-tolyl)acetamide]
IC50 [1]: 25.1 nM | IC50 [2]: 20 nM

CC(C)c1ccc(CC(=O)Nc2cc(-c3ccccc3-c3nn[nH]n3)ccc2SC(C)(C)C)cc1 [Example 27, N-(4-(tert-butylthio)-2′-(2H-tetrazol-5-yl)-[1,1′-biphenyl]-3-yl)-2-(4-isopropylphenyl)acetamide]
IC50 [1]: 3.98 nM | IC50 [2]: 3.16 nM

CC(C)(C)Sc1ccc(-c2ccccc2-c2nn[nH]n2)cc1NC(=O)Cc1ccc(Cl)cc1 [Example 34, N-(4-(tert-butylthio)-2′-(2H-tetrazol-5-yl)-[1,1′-biphenyl]-3-yl)-2-(4-chlorophenyl)acetamide]
IC50 [1]: 79.4 nM | IC50 [2]: 25.1 nM

Cc1ccc(OC(=O)Nc2cc(-c3ccccc3-c3nn[nH]n3)ccc2SC(C)(C)C)cc1 [Example 35, p-Tolyl (4-(tert-butylthio)-2′-(2H-tetrazol-5-yl)-[1,1′-biphenyl]-3-yl)carbamate]
IC50 [1]: > 3160 nM | IC50 [2]: 1580 nM

CC(C)(C)Sc1ccc(-c2ccccc2-c2nn[nH]n2)cc1NC(=O)c1ccccc1 [Example 36, N-(4-(tert-butylthio)-2′-(2H-tetrazol-5-yl)-[1,1′-biphenyl]-3-yl)benzamide]
IC50 [1]: 2510 nM | IC50 [2]: 1260 nM

Cc1ccc(CCC(=O)Nc2cc(-c3ccccc3-c3nn[nH]n3)ccc2SC(C)(C)C)cc1 [Example 37, N-(4-(tert-butylthio)-2′-(2H-tetrazol-5-yl)-[1,1′-biphenyl]-3-yl)-3-(p-tolyl)propanamide]
IC50 [1]: 794 nM | IC50 [2]: 251 nM

Cc1ccc(CC(=O)Nc2cc(C(C)CC(=O)O)ccc2SC(C)(C)C)cc1 (stereo not drawn) [Example 44, 3-(4-(tert-Butylthio)-3-(2-(p-tolyl)acetamido)phenyl)butanoic Acid]
IC50 [2]: 3980 nM

COCn1nnc(-c2ccccc2-c2ccc(SC(C)(C)C)c(NC(=O)Cc3ccc(C)cc3)c2)n1 [Example 59, N-(4-(tert-butylthio)-2′-(2-(methoxymethyl)-2H-tetrazol-5-yl)-[1,1′-biphenyl]-3-yl)-2-(p-tolyl)acetamide]
IC50 [1]: 398 nM

COCn1nnnc1-c1ccccc1-c1ccc(SC(C)(C)C)c(NC(=O)Cc2ccc(C)cc2)c1 [Example 60, N-(4-(tert-butylthio)-2′-(1-(methoxymethyl)-1H-tetrazol-5-yl)-[1,1′-biphenyl]-3-yl)-2-(p-tolyl)acetamide]
IC50 [1]: 63.1 nM

Cc1ccc(CC(=O)Nc2cc(-c3ccccc3-c3nnn(C)n3)ccc2SC(C)(C)C)cc1 [Example 61, N-(4-(tert-butylthio)-2′-(2-methyl-2H-tetrazol-5-yl)-[1,1′-biphenyl]-3-yl)-2-(p-tolyl)acetamide]
IC50 [1]: 631 nM

Cc1ccc(CC(=O)Nc2cc(-c3ccccc3-c3nnnn3C)ccc2SC(C)(C)C)cc1 [Example 62, N-(4-(tert-butylthio)-2′-(1-methyl-1H-tetrazol-5-yl)-[1,1′-biphenyl]-3-yl)-2-(p-tolyl)acetamide]
IC50 [1]: 501 nM
